Laboratory results published in US11420970B1 (NOVARTIS AG, priority 2019, dated 2022).
Where two headings read alike, the source gives them in different places.

How the values were obtained:
NSD2 [1-1365] = NSD2 [1-1365] (Homo sapiens (Human), UniProt O96028); assay: LC-MS/MS-based NSD2 enzymatic assay (SAH production); format: biochemical; settings: read-out: NSD2 IC50
Method in brief: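 Full-length NSD2 [1-1365] (8 nM final) with 1 μM SAM and 400 nM mouse-liver nucleosome in Tris pH 8.0 buffer; inhibitor preincubated 20 min with enzyme/SAM before nucleosome addition. Reaction 90 min at room temperature, TFA-quenched; SAH quantified by LC-MS/MS against d4-SAH internal standard and SAH standard curve.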

[1] = tested on: cellular H3K36me2 level in multiple myeloma cell line KMS11 (t(4;14)+); assay: H3K36me2 cellular ELISA assay in KMS11-Par line; format: cell-based; settings: Homo sapiens, KMS-11, ELISA, read-out: H3K36me2 ELISA in KMS11-Par
Procedure: H3K36Me2 Cellular ELISA Assay in KMS11-Par Line
An ELISA (enzyme-linked immunosorbent assay) based assay was used to test the ability of candidate compound to reduce cellular H3K36me2 level in multiple myeloma cell line KMS11 (t(4;14)+). KMS11 (Horizon Discovery Ltd.) cells are maintained in RPM11640 media with 12.5% FBS and 50 U/ml Penicillin-Streptomycin. For assay compound treatment, single cell suspension was prepared in Opti-MEM supplemented with B-27 and N2 supplement (Invitrogen 11058-021, 17504-044, 17502-048) for ELISA and in maintenance media for cellTiter Glo (CTG) viability assay. One day prior to cell treatment, 1,250 KMS11 cells were seeded into 384-well Greiner CellStar TC plate (Greiner #781086) at the final volume of 30 μL/well.
Cells were treated with tested compounds at the desired concentration for 72 hours. Crude histone lysate was extracted by 0.4M HCl following neutralization by 0.5M Sodium phosphate, dibasic (Na2HPO4), pH ˜12.5. Equal amount of histone lysate was loaded to Corning 384-well high biding plate (Corning #3577, black) for H3K36m2 and to Thermo 384-well high binding Nunc plate (Thermo #460372, white) for total H3.
Histone bound plates were washed and blocked with 5% BSA. […] The abundance of H3K36me2 and total H3 was measured by Chemiluminesce on a plate reader. Cell viability was monitored on a parallel seeded plate with CellTiter-Glo reagent (Promega #G7573).

[2] = NSD2 biochemical activity, class symbols
[3] = KMS11-Par line (t(4;14)+), 72 hours treatment

NSD2 [1-1365], sequence (O96028 whole entry): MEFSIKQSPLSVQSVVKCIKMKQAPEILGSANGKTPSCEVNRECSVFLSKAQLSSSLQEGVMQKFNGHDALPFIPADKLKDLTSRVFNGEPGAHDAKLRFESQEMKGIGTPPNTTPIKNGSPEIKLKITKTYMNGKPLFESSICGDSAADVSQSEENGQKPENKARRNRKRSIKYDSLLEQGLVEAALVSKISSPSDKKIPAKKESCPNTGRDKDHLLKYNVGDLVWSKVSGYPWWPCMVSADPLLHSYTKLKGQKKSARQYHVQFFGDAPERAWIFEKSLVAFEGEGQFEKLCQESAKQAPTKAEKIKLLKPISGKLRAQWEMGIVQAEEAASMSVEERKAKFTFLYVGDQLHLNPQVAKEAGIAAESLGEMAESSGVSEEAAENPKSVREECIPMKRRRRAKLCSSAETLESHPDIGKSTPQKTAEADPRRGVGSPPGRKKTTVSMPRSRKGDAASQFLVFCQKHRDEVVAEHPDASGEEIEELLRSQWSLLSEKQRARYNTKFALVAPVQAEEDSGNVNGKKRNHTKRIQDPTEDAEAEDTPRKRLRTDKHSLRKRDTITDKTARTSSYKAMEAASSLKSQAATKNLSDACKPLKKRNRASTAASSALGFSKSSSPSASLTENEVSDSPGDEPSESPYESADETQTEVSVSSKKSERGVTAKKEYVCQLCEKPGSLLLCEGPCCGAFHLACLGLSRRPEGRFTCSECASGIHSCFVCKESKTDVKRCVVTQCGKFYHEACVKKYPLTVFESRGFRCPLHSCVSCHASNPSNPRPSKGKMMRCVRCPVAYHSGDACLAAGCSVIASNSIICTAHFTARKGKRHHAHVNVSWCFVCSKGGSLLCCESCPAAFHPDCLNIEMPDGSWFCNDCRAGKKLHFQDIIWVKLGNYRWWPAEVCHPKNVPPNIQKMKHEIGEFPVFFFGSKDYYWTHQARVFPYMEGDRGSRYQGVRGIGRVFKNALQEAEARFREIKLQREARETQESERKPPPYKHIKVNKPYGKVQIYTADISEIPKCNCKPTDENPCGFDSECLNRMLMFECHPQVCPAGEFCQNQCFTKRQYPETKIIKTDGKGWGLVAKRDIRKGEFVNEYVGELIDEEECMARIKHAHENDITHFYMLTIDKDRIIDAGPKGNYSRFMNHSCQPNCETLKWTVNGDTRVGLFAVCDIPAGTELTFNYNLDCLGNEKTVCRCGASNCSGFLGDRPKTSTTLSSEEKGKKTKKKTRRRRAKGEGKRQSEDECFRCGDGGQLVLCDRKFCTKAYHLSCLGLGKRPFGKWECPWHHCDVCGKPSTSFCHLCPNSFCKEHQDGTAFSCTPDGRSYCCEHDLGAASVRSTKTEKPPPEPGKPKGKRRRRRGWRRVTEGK

Structure (SMILES) | IC50 (NSD2 [1-1365]) [nM] | IC50 ([1]; KMS11-Par line, 72 hours) [nM] | IC50 (NSD2 [1-1365]; [2]) [nM] | IC50 [1, 3] [nM]
CCc1cccc([C@@]2(N)CCCN(c3cnc(-c4ccc(F)cc4)cc3Cn3cnc4c(N)ncnc43)C2)n1 [Example 202, (R)-9-((5-(3-amino-3-(6-ethylpyridin-2-yl)piperidin-1-yl)-2-(4-fluorophenyl)pyridin-4-yl)methyl)-9H-purin-6-amine] | 1 to 10 | 264 | – | –
Nc1ncnc2c1ncn2Cc1cc(-c2ccc(F)c(F)c2)ncc1N1CCCC(N)(c2cncc(Cl)n2)C1 (stereo not shown) [Example 254, 9-((5-(3-amino-3-(6-chloropyrazin-2-yl)piperidin-1-yl)-2-(3,4-difluorophenyl)pyridin-4-yl)methyl)-9H-purin-6-amine] | 10 to 1000 | 1540 | – | –
Nc1ncnc2c1ncn2Cc1cc(-c2ccc(F)c(F)c2)ncc1N1CCC[C@](N)(c2ccnc(Cl)c2)C1 [Example 246, (S)-9-((5-(3-amino-3-(2-chloropyridin-4-yl)piperidin-1-yl)-2-(3,4-difluorophenyl)pyridin-4-yl)methyl)-9H-purin-6-amine] | 10 to 1000 | 16700 | – | –
Nc1nccc2c1ncn2Cc1cc(-c2ccc(F)c(F)c2)ncc1N1CCC[C@](N)(Cc2ccccn2)C1 [Example 51, (S)-1-((5-(3-amino-3-(pyridin-2-ylmethyl)piperidin-1-yl)-2-(3,4-difluorophenyl)pyridin-4-yl)methyl)-1H-imidazo[4,5-c]pyridin-4-amine] | – | – | 1 to 10 | 1530
C[C@@H](c1ccccn1)[C@@]1(N)CCCN(c2cnc(-c3ccc(F)c(F)c3)cc2Cn2cnc3c(N)ncnc32)C1 [Example 65, 9-((5-((S)-3-amino-3-((R)-1-(pyridin-2-yl)ethyl)piperidin-1-yl)-2-(3,4-difluorophenyl)pyridin-4-yl)methyl)-9H-purin-6-amine] | – | – | 10 to 1000 | 1130
COc1ccc(-c2cc(Cn3cnc4c(N)nccc43)c(N3CCC[C@](N)(Cc4nccs4)C3)cn2)cc1F [Example 57, (S)-1-((5-(3-amino-3-(thiazol-2-ylmethyl)piperidin-1-yl)-2-(3-fluoro-4-methoxyphenyl)pyridin-4-yl)methyl)-1H-imidazo[4,5-c]pyridin-4-amine] | – | – | 1 to 10 | 610
Nc1ncnc2c1ncn2Cc1cc(-c2ccc(F)c(F)c2)ncc1N1CC[C@@H](O)[C@](N)(c2cccc(Cl)n2)C1 [Example 302, (3R,4R)-3-amino-1-(4-((6-amino-9H-purin-9-yl)methyl)-6-(3,4-difluorophenyl)pyridin-3-yl)-3-(6-chloropyridin-2-yl)piperidin-4-ol] | 10 to 1000 | 563 | – | –
Cc1cc([C@@]2(N)CCCN(c3cnc(-c4ccc(F)c(F)c4)cc3Cn3cnc4c(N)ncnc43)C2)ccn1 [Example 247, (S)-9-((5-(3-amino-3-(2-methylpyridin-4-yl)piperidin-1-yl)-2-(3,4-difluorophenyl)pyridin-4-yl)methyl)-9H-purin-6-amine] | 10 to 1000 | 33300 | – | –
Nc1ncnc2c1ncn2Cc1cc(-c2ccc(F)c(F)c2)ncc1N1CCC[C@](N)(Cc2cnccn2)C1 [Example 74, (S)-9-((5-(3-amino-3-(pyrazin-2-ylmethyl)piperidin-1-yl)-2-(3,4-difluorophenyl)pyridin-4-yl)methyl)-9H-purin-6-amine] | – | – | 10 to 1000 | 4220
Cc1cc2c(cnn2C)cc1-c1cc(Cn2cnc3c(N)ncnc32)c(N2CCC[C@](N)([C@@H](O)C(F)F)C2)cn1 [Example 136, (R)-1-((R)-3-amino-1-(4-((6-amino-9H-purin-9-yl)methyl)-6-(1,6-dimethyl-1H-indazol-5-yl)pyridin-3-yl)piperidin-3-yl)-2,2-difluoroethan-1-ol] | – | – | 10 to 1000 | 8800
COC[C@@]1(N)CCCN(c2cnc(-c3ccc(F)c(Cl)c3)cc2Cn2cnc3c(N)ncnc32)C1 [Example 28, (R)-9-((5-(3-amino-3-(methoxymethyl)piperidin-1-yl)-2-(3-chloro-4-fluorophenyl)pyridin-4-yl)methyl)-9H-purin-6-amine] | – | – | 1 to 10 | –
Nc1ncnc2c1ncn2Cc1cc(-c2cc(F)c(C(F)F)cc2F)ncc1N1CCC[C@](N)([C@H](O)C(F)F)C1 [Example 120, (S)-1-((R)-3-amino-1-(4-((6-amino-9H-purin-9-yl)methyl)-6-(4-(difluoromethyl)-2,5-difluorophenyl)pyridin-3-yl)piperidin-3-yl)-2,2-difluoroethan-1-ol] | – | – | 1 to 10 | –
CNC(=O)[C@@H]1[C@H](N)CCCN1c1cnc(-c2ccc(F)c(F)c2)cc1Cn1cnc2c(N)ncnc21 [Example 315, (2S,3R)-3-amino-1-(4-((6-amino-9H-purin-9-yl)methyl)-6-(3,4-difluorophenyl)pyridin-3-yl)-N-methylpiperidine-2-carboxamide] | > 1000 | – | – | –
Nc1ncnc2c1ncn2Cc1cc(-c2ccc(F)c(F)c2)ncc1N1CCCC2(COCCN2)C1 (stereo not shown) [Example 321, 9-((2-(3,4-difluorophenyl)-5-(4-oxa-1,8-diazaspiro[5.5]undecan-8-yl)pyridin-4-yl)methyl)-9H-purin-6-amine] | > 1000 | – | – | –
COc1ccc(-c2cc(Cn3cnc4c(N)ncnc43)c(N3C[C@H](N)CC(F)(F)C3)cn2)cc1F [Example 16, (R)-9-((5-(5-amino-3,3-difluoropiperidin-1-yl)-2-(3-fluoro-4-methoxyphenyl)pyridin-4-yl)methyl)-9H-purin-6-amine] | – | – | 10 to 1000 | –
NC(=O)C[C@@]1(N)CCCN(c2cnc(-c3ccc(F)c(F)c3)cc2Cn2cnc3c(N)ncnc32)C1 [Example 62, (S)-2-(3-amino-1-(4-((6-amino-9H-purin-9-yl)methyl)-6-(3,4-difluorophenyl)pyridin-3-yl)piperidin-3-yl)acetamide] | – | – | 10 to 1000 | –
C[C@@H]1CN(c2cnc(-c3ccc(F)cc3)cc2Cn2cnc3c(N)ncnc32)C[C@@](N)(CC(F)F)C1 [Example 307, 9-((5-((3S,5S)-3-amino-3-(2,2-difluoroethyl)-5-methylpiperidin-1-yl)-2-(4-fluorophenyl)pyridin-4-yl)methyl)-9H-purin-6-amine] | > 1000 | – | – | –
COc1c(-c2ccc(F)c(F)c2)ncc(N2CCC[C@](N)([C@H](O)C(F)F)C2)c1Cn1cnc2c(N)ncnc21 [Example 118, (S)-1-((R)-3-amino-1-(4-((6-amino-9H-purin-9-yl)methyl)-6-(3,4-difluorophenyl)-5-methoxypyridin-3-yl)piperidin-3-yl)-2,2-difluoroethan-1-ol] | – | – | 1 to 10 | –
Cn1cnc2ccc(-c3cc(Cn4cnc5c(N)ncnc54)c(N4CCCC(N)(c5cccc(Cl)n5)C4)cn3)cc21 (stereo not shown) [Example 220, 9-((5-(3-amino-3-(6-chloropyridin-2-yl)piperidin-1-yl)-2-(1-methyl-1H-benzo[d]imidazol-6-yl)pyridin-4-yl)methyl)-9H-purin-6-amine] | 10 to 1000 | – | – | –
Nc1ncnc2c1ncn2Cc1c(N2CCC[C@](N)([C@H](O)C(F)F)C2)cnc(-c2ccc(F)cc2F)c1F [Example 142, (S)-1-((R)-3-amino-1-(4-((6-amino-9H-purin-9-yl)methyl)-6-(2,4-difluorophenyl)-5-fluoropyridin-3-yl)piperidin-3-yl)-2,2-difluoroethan-1-ol] | – | – | 10 to 1000 | –
Nc1ncnc2c1ncn2Cc1cc(-c2ccc(F)cc2)ncc1N1CCC[C@](N)(c2ccn(C(F)F)n2)C1 [Example 273, (R)-9-((5-(3-amino-3-(1-(difluoromethyl)-1H-pyrazol-3-yl)piperidin-1-yl)-2-(4-fluorophenyl)pyridin-4-yl)methyl)-9H-purin-6-amine] | 1 to 10 | – | – | –
Nc1ncnc2c1ncn2Cc1cc(-c2ccc3nccn3c2)ncc1N1CCCC(N)(c2cccc(Cl)n2)C1 (stereo not shown) [Example 210, 9-((5-(3-amino-3-(6-chloropyridin-2-yl)piperidin-1-yl)-2-(imidazo[1,2-a]pyridin-6-yl)pyridin-4-yl)methyl)-9H-purin-6-amine] | 10 to 1000 | – | – | –
CCc1cncc([C@@]2(N)CCCN(c3cnc(-c4ccc(F)cc4)cc3Cn3cnc4c(N)nccc43)C2)n1 [Example 256, (R)-1-((5-(3-amino-3-(6-ethylpyrazin-2-yl)piperidin-1-yl)-2-(4-fluorophenyl)pyridin-4-yl)methyl)-1H-imidazo[4,5-c]pyridin-4-amine] | 10 to 1000 | – | – | –
Nc1ncnc2c1ncn2Cc1cc(-c2ccc(F)c(F)c2)ncc1N1CCC[C@@H](N)[C@H]1CCO [Example 314, 2-((2R,3R)-3-amino-1-(4-((6-amino-9H-purin-9-yl)methyl)-6-(3,4-difluorophenyl)pyridin-3-yl)piperidin-2-yl)ethan-1-ol] | 10 to 1000 | – | – | –
